Data published in EP4410284A1, “COMPOUND AND METHOD FOR THE TREATMENT OF ZELLWEGER SPECTRUM DISORDER” (Apteeus, priority 2023, dated 2024).
Like-named read-outs stand apart in the source and are kept apart here.

Columns and labels:
PEX405 cells [1] = assay type: cell-based; details: 3 days, PI positive cells (dead cells)
GM16513 cells [2] = assay type: cell-based; details: 3 days, PI positive cells (dead cells)
PEX405 cells [3] = test: Catalase import immunofluorescence, high-content screening (% importing cells); assay type: cell-based, human; details: PEX405 cells, 3 days
GM16513 cells [4] = test: as above; assay type: cell-based, human; details: GM16513 cells, 3 days

| % PI+ cells (PEX405 cells [1]; 1.3 µM) | % PI+ cells (PEX405 cells [1]; 10 µM) | % PI+ cells (GM16513 cells [2]; 1.3 µM) | % PI+ cells (GM16513 cells [2]; 10 µM) | EC50 (GM16513 cells [4]; Homo sapiens, 72 h, dose response with 6 concentrations, read-out: EC50) | SMILES | % Importing cells (PEX405 cells [3]; 1.3 µM) | % Importing cells (PEX405 cells [3]; 10 µM) | % Importing cells (GM16513 cells [4]; 1.3 µM) | % Importing cells (GM16513 cells [4]; 10 µM) | Emax (GM16513 cells [4]; Homo sapiens, 72 h, dose response with 6 concentrations, read-out: Max Efficacy (% Importing cells)) |
| --- | --- | --- | --- | --- | --- | --- | --- | --- | --- | --- |
| 0% | 2% | 2% | 14% | – | COc1ccc(/C=C/C(=O)NO)c(-c2ccc(-c3ccccc3)cc2)c1 [HDAC8-IN-1] | 2% | 0% | 10% | 3% | – |
| 1% | 0% | 1% | 1% | – | CCOC(=O)c1cnc(NC2(c3ccccc3)CC2)nc1 [CG347B] | 4% | 5% | 25% | 21% | – |
| 1% | 2% | 1% | 1% | – | Nc1ccccc1NC(=O)c1cnccn1 [BG45] | 4% | 5% | 15% | 30% | – |
| 0% | 1% | 1% | 4% | – | Nc1ccccc1NC(=O)CCCCCC(=O)Nc1ccccc1 [NKL 22] | 7% | 13% | 28% | 55% | – |
| 0% | 1% | 2% | 2% | – | O=C(NO)c1cnc(NC2(c3cccc(F)c3)CCCCC2)nc1 [ACY-775] | 4% | 9% | 21% | 47% | – |
| 1% | 1% | 1% | 1% | – | CN1CCc2c(c3ccccc3n2Cc2ccc(C(=O)NO)cc2)C1 [Tubastatin A] | 5% | 6% | 26% | 32% | – |
| 4% | 43% | 3% | 26% | – | O=C(CCc1ccc(CN[C@H](C(=O)OC2CCCC2)C2CCCCC2)cn1)NO [HDAC-IN-3] | 11% | 0% | 50% | 81% | – |
| 0% | 0% | 1% | 1% | – | COc1cccc2c1c(O)c(C(=O)N(C)c1ccc(C(F)(F)F)cc1)c(=O)n2C [Tasquinimod] | 7% | 4% | 23% | 22% | – |
| 5% | 8% | 6% | 7% | 600 nM | Cn1cc(-c2ccc(S(=O)(=O)n3ccc(/C=C/C(=O)Nc4ccccc4N)c3)cc2)cn1 [Domatinostat] | 4% | 7% | 21% | 33% | 33% |

| SMILES | % PI+ cells (PEX405 cells [1]; 1.3 µM) | % PI+ cells (PEX405 cells [1]; 10 µM) | % PI+ cells (GM16513 cells [2]; 1.3 µM) | % PI+ cells (GM16513 cells [2]; 10 µM) | EC50 (GM16513 cells [4]; Homo sapiens, 72 h, dose response with 6 concentrations, read-out: EC50) | % Importing cells (PEX405 cells [3]; 1.3 µM) | % Importing cells (PEX405 cells [3]; 10 µM) | % Importing cells (GM16513 cells [4]; 1.3 µM) | % Importing cells (GM16513 cells [4]; 10 µM) | Emax (GM16513 cells [4]; Homo sapiens, 72 h, dose response with 6 concentrations, read-out: Max Efficacy (% Importing cells)) |
| --- | --- | --- | --- | --- | --- | --- | --- | --- | --- | --- |
| CC(/C=C/C(=O)NO)=C\[C@@H](C)C(=O)c1ccc(N(C)C)cc1 [Trichostatin A] | 24% | 49% | 18% | 30% | – | 28% | 0% | 90% | 76% | – |
| Nc1[nH]c(=O)nc2c1ncn2[C@@H]1O[C@H](CO)[C@@H](O)[C@H]1O [Crotonoside] | 0% | 1% | 1% | 1% | – | 3% | 3% | 20% | 18% | – |
| COc1ccc(Cn2ccc3ccc(C(=O)NO)cc32)cc1 [PCI-34051] | 1% | 1% | 1% | 2% | – | 2% | 1% | 16% | 7% | – |
